Laboratory results taken from the supplement of paper PMC10627819.
In brackets after ≈: the same amount, converted by molar mass.

Columns and labels:
S. pneumoniae D39V [1] = system: S. pneumoniae D39V
S. pneumoniae D39V [2] = test: fitness (endpoint OD595 vs no drug) (fraction); higher = more growth
Outline: (§1)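 Growth medium was TSB, LB Lennox or CY, and plates were kept at 37 °C. Inoculation was at OD595 0.01 in 384-well plates, at 30 µl per well or 55 µl for S. pneumoniae. OD595 was monitored every 30 min for 14 h and background-subtracted using the first reading. Fitness is the optical density on entering stationary phase divided by the robust mean of no-drug controls, with values capped at 1.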

S. aureus DSM 20231 [3] = system: S. aureus DSM 20231
S. aureus Newman [4] = system: S. aureus Newman
S. aureus DSM 20231 [5] = test: fitness (endpoint OD595 vs no drug) (fraction); higher = more growth
Outline: as §1

B. subtilis 168 [6] = test: as above
Outline: as §1

B. subtilis 168 [7] = test: Bliss interaction score (quartile over a dose matrix) (fitness difference); higher = more antagonism (negative = synergy)
Outline: (§2)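 Fitness was derived from optical density at entry into stationary phase, divided by the robust mean of the no-drug wells on the same plate. That reading was taken as OD595, and the ratio was capped at 1. Single-drug fitness was inferred from the combination data. The Bliss score, observed fitness minus the expected product of single-drug fitness, was summarised as quartiles over technical, biological and donor/recipient replicates.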

S. aureus DSM 20231 [8] = test: as above
Outline: as §2

S. pneumoniae D39V [9] = test: as above
Outline: as §2

S. aureus Newman [10] = test: as above
Outline: as §2

S. aureus Newman [11] = test: fitness (endpoint OD595 vs no drug) (fraction); higher = more growth
Outline: as §1
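For Bliss interaction score (quartile over a dose matrix) in this document: first quartile when negative (synergy) and third quartile when positive (antagonism).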

C/C(=C\C(=O)OCCCCCCCCC(=O)O)C[C@@H]1OC[C@H](C[C@@H]2O[C@H]2[C@@H](C)[C@H](C)O)[C@@H](O)[C@H]1O [Pseudomonic acid]
Conditions	MIC [µg/mL]
S. pneumoniae D39V [1]	0.25 (≈ 0.499 µM)

S. pneumoniae D39V [2]
Conditions	fitness
0.03 µg/mL	0.971
0.06 µg/mL	0.822
0.12 µg/mL	0.443

CC[C@H]1OC(=O)[C@H](C)[C@@H](O[C@H]2C[C@@](C)(OC)[C@@H](O)[C@H](C)O2)[C@H](C)[C@@H](O[C@@H]2O[C@H](C)C[C@H](N(C)C)[C@H]2O)[C@](C)(OC)C[C@@H](C)C(=O)[C@H](C)[C@@H](O)[C@]1(C)O [Clarithromycin]
Conditions	MIC [µg/mL]
S. aureus DSM 20231 [3]	0.234 (≈ 0.313 µM)
S. aureus Newman [4]	0.5 (≈ 0.668 µM)
S. pneumoniae D39V [1]	0.5 (≈ 0.668 µM)

fitness
Conditions	0.0585 µg/mL	0.0625 µg/mL	0.117 µg/mL	0.125 µg/mL	0.234 µg/mL	0.25 µg/mL
S. aureus DSM 20231 [5]	0.94	–	0.691	–	0.0857	–
S. pneumoniae D39V [2]	–	0.568	–	0.346	–	0.148

CCC[C@@H]1C[C@@H](C(=O)N[C@@H]([C@H]2O[C@H](SC)[C@H](O)[C@@H](O)[C@H]2O)[C@@H](C)O)N(C)C1 [Lincomycin]
Conditions	MIC [µg/mL]
S. aureus DSM 20231 [3]	0.4 (≈ 0.984 µM)
S. aureus Newman [4]	0.4 (≈ 0.984 µM)
S. pneumoniae D39V [1]	1.6 (≈ 3.94 µM)

fitness
Conditions	0.1 µg/mL	0.2 µg/mL	0.4 µg/mL	0.8 µg/mL	1.6 µg/mL
B. subtilis 168 [6]	0.862	0.823	0.852	0.878	0.854
S. aureus DSM 20231 [5]	0.932	0.767	0.315	–	–
S. pneumoniae D39V [2]	–	0.648	0.432	0.211	–

CC(=O)OC[C@H]1O[C@@H]([S-])[C@H](OC(C)=O)[C@@H](OC(C)=O)[C@@H]1OC(C)=O.CCP(CC)CC.[Au+] [Auranofin]
Conditions	MIC [µg/mL]
S. aureus DSM 20231 [3]	0.5
S. aureus Newman [4]	0.5

COc1c(N2C[C@@H]3CCCN[C@@H]3C2)c(F)cc2c(=O)c(C(=O)O)cn(C3CC3)c12 [Moxifloxacin] + CC1=C\[C@@H](O)CC(=O)Cc2nc(co2)C(=O)N2CCC=C2C(=O)O[C@H](C(C)C)[C@H](C)/C=C/C(=O)NC\C=C\1 [Virginiamycin M1]
Conditions	Bliss interaction score
B. subtilis 168 [7]	-0.0191
S. aureus DSM 20231 [8]	-0.0567
S. aureus Newman [10]	-0.0536
S. pneumoniae D39V [9]	0.065

Conditions	fitness
B. subtilis 168 [6], first compound 0.0312 µg/mL, partner 0.0625 µg/mL	0.0441
B. subtilis 168 [6], first compound 0.0312 µg/mL, partner 0.125 µg/mL	0.0556
B. subtilis 168 [6], first compound 0.0312 µg/mL, partner 0.25 µg/mL	0.0499
B. subtilis 168 [6], first compound 0.0625 µg/mL, partner 0.0625 µg/mL	0.0365
B. subtilis 168 [6], first compound 0.0625 µg/mL, partner 0.125 µg/mL	0.0573
B. subtilis 168 [6], first compound 0.0625 µg/mL, partner 0.25 µg/mL	0.0434
B. subtilis 168 [6], first compound 0.125 µg/mL, partner 0.0625 µg/mL	0.044
B. subtilis 168 [6], first compound 0.125 µg/mL, partner 0.125 µg/mL	0.0517
B. subtilis 168 [6], first compound 0.125 µg/mL, partner 0.25 µg/mL	0.0468
B. subtilis 168 [6], first compound 2 µg/mL, partner 0.0625 µg/mL	0.0224
B. subtilis 168 [6], first compound 2 µg/mL, partner 0.125 µg/mL	0.0234
B. subtilis 168 [6], first compound 2 µg/mL, partner 0.25 µg/mL	0.0324
B. subtilis 168 [6], first compound 4 µg/mL, partner 0.0625 µg/mL	0.0209
B. subtilis 168 [6], first compound 4 µg/mL, partner 0.125 µg/mL	0.0242
B. subtilis 168 [6], first compound 4 µg/mL, partner 0.25 µg/mL	0.0192
B. subtilis 168 [6], first compound 8 µg/mL, partner 0.0625 µg/mL	0.0121
B. subtilis 168 [6], first compound 8 µg/mL, partner 0.125 µg/mL	0.0128
B. subtilis 168 [6], first compound 8 µg/mL, partner 0.25 µg/mL	0.0206
S. aureus DSM 20231 [5], first compound 0.0075 µg/mL, partner 0.0625 µg/mL	0.812
S. aureus DSM 20231 [5], first compound 0.0075 µg/mL, partner 0.125 µg/mL	0.901
S. aureus DSM 20231 [5], first compound 0.0075 µg/mL, partner 0.25 µg/mL	0.81
S. aureus DSM 20231 [5], first compound 0.015 µg/mL, partner 0.0625 µg/mL	0.702
S. aureus DSM 20231 [5], first compound 0.015 µg/mL, partner 0.125 µg/mL	0.72
S. aureus DSM 20231 [5], first compound 0.015 µg/mL, partner 0.25 µg/mL	0.776
S. aureus DSM 20231 [5], first compound 0.03 µg/mL, partner 0.0625 µg/mL	0.609
S. aureus DSM 20231 [5], first compound 0.03 µg/mL, partner 0.125 µg/mL	0.67
S. aureus DSM 20231 [5], first compound 0.03 µg/mL, partner 0.25 µg/mL	0.662
S. aureus Newman [11], first compound 0.0075 µg/mL, partner 0.0625 µg/mL	0.764
S. aureus Newman [11], first compound 0.0075 µg/mL, partner 0.125 µg/mL	0.762
S. aureus Newman [11], first compound 0.0075 µg/mL, partner 0.25 µg/mL	0.795
S. aureus Newman [11], first compound 0.015 µg/mL, partner 0.0625 µg/mL	0.545
S. aureus Newman [11], first compound 0.015 µg/mL, partner 0.125 µg/mL	0.556
S. aureus Newman [11], first compound 0.015 µg/mL, partner 0.25 µg/mL	0.517
S. aureus Newman [11], first compound 0.03 µg/mL, partner 0.0625 µg/mL	0.0697
S. aureus Newman [11], first compound 0.03 µg/mL, partner 0.125 µg/mL	0.0796
S. aureus Newman [11], first compound 0.03 µg/mL, partner 0.25 µg/mL	0.0787
S. pneumoniae D39V [2], first compound 0.0037 µg/mL, partner 2 µg/mL	0.802
S. pneumoniae D39V [2], first compound 0.005 µg/mL, partner 0.5 µg/mL	0.999
S. pneumoniae D39V [2], first compound 0.005 µg/mL, partner 1 µg/mL	≥ 1
S. pneumoniae D39V [2], first compound 0.005 µg/mL, partner 2 µg/mL	0.99
S. pneumoniae D39V [2], first compound 0.0075 µg/mL, partner 2 µg/mL	0.869
S. pneumoniae D39V [2], first compound 0.01 µg/mL, partner 0.5 µg/mL	≥ 1
S. pneumoniae D39V [2], first compound 0.01 µg/mL, partner 1 µg/mL	0.992
S. pneumoniae D39V [2], first compound 0.01 µg/mL, partner 2 µg/mL	0.979
S. pneumoniae D39V [2], first compound 0.015 µg/mL, partner 2 µg/mL	0.811
S. pneumoniae D39V [2], first compound 0.02 µg/mL, partner 0.5 µg/mL	0.981
S. pneumoniae D39V [2], first compound 0.02 µg/mL, partner 1 µg/mL	0.995
S. pneumoniae D39V [2], first compound 0.02 µg/mL, partner 2 µg/mL	0.963

one replicate
Conditions	fitness
S. aureus DSM 20231 [5], first compound 0.0075 µg/mL, partner 0.5 µg/mL	0.785
S. aureus DSM 20231 [5], first compound 0.0075 µg/mL, partner 1 µg/mL	0.81
S. aureus DSM 20231 [5], first compound 0.015 µg/mL, partner 0.5 µg/mL	0.787
S. aureus DSM 20231 [5], first compound 0.015 µg/mL, partner 1 µg/mL	0.793
S. aureus DSM 20231 [5], first compound 0.03 µg/mL, partner 0.5 µg/mL	0.693
S. aureus DSM 20231 [5], first compound 0.03 µg/mL, partner 1 µg/mL	0.734
S. aureus DSM 20231 [5], first compound 0.06 µg/mL, partner 0.0625 µg/mL	0.686
S. aureus DSM 20231 [5], first compound 0.06 µg/mL, partner 0.125 µg/mL	0.695
S. aureus DSM 20231 [5], first compound 0.06 µg/mL, partner 0.25 µg/mL	0.69
S. aureus DSM 20231 [5], first compound 0.12 µg/mL, partner 0.0625 µg/mL	0.462
S. aureus DSM 20231 [5], first compound 0.12 µg/mL, partner 0.125 µg/mL	0.471
S. aureus DSM 20231 [5], first compound 0.12 µg/mL, partner 0.25 µg/mL	0.46
S. aureus Newman [11], first compound 0.0075 µg/mL, partner 0.5 µg/mL	0.659
S. aureus Newman [11], first compound 0.0075 µg/mL, partner 1 µg/mL	0.758
S. aureus Newman [11], first compound 0.0075 µg/mL, partner 2 µg/mL	0.665
S. aureus Newman [11], first compound 0.015 µg/mL, partner 0.5 µg/mL	0.654
S. aureus Newman [11], first compound 0.015 µg/mL, partner 1 µg/mL	0.643
S. aureus Newman [11], first compound 0.015 µg/mL, partner 2 µg/mL	0.579
S. aureus Newman [11], first compound 0.03 µg/mL, partner 0.5 µg/mL	0.465
S. aureus Newman [11], first compound 0.03 µg/mL, partner 1 µg/mL	0.414
S. aureus Newman [11], first compound 0.03 µg/mL, partner 2 µg/mL	0.323
S. pneumoniae D39V [2], first compound 0.0037 µg/mL, partner 0.15 µg/mL	0.808
S. pneumoniae D39V [2], first compound 0.0037 µg/mL, partner 0.3 µg/mL	0.758
S. pneumoniae D39V [2], first compound 0.0037 µg/mL, partner 0.5 µg/mL	0.97
S. pneumoniae D39V [2], first compound 0.0037 µg/mL, partner 1 µg/mL	0.95
S. pneumoniae D39V [2], first compound 0.0075 µg/mL, partner 0.15 µg/mL	0.911
S. pneumoniae D39V [2], first compound 0.0075 µg/mL, partner 0.3 µg/mL	0.877
S. pneumoniae D39V [2], first compound 0.0075 µg/mL, partner 0.5 µg/mL	0.965
S. pneumoniae D39V [2], first compound 0.0075 µg/mL, partner 1 µg/mL	0.934
S. pneumoniae D39V [2], first compound 0.015 µg/mL, partner 0.15 µg/mL	0.832
S. pneumoniae D39V [2], first compound 0.015 µg/mL, partner 0.3 µg/mL	0.843
S. pneumoniae D39V [2], first compound 0.015 µg/mL, partner 0.5 µg/mL	0.933
S. pneumoniae D39V [2], first compound 0.015 µg/mL, partner 1 µg/mL	0.873
